Measured values reported in PubChem BioAssay AID463203 (Broad Institute, 2010).
Active and inactive are the calls of the source.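 Rule for the calls: active = more than half of replicate measurements showing over 20% loss of kinase signal relative to plate controls; inconclusive = some but at most half of replicates over 20% loss; inactive = no replicate over 20% signal loss.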

target: Glycogen synthase kinase-3 alpha (Homo sapiens) (UniProt P49840); test: concentration-response blocking of human GSK3A – biochemical, luminescence, cell-free homogeneous, retest, dose response (AID 463203); settings: GSK-3 alpha enzyme, ADP-Glo luminescence, 60 min
Sequence (P49840 whole entry, looked up): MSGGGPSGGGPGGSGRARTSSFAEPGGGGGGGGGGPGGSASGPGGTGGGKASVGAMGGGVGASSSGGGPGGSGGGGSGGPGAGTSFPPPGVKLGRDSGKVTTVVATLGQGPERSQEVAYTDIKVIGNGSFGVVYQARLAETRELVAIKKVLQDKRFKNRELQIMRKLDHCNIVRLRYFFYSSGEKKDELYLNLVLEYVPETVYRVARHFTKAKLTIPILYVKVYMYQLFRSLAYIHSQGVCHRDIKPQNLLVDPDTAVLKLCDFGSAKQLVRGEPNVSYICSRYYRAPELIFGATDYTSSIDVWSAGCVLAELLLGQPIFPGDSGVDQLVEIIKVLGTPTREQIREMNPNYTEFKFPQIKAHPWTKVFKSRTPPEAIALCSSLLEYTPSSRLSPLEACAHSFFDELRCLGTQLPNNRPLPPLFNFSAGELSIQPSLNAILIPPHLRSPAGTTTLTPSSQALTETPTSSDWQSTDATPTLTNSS

Row | Structure (SMILES) | AC50
1 | Cn1c(=O)c2c([nH]c(=O)n2C)n(Cc2ccccc2)c1=O | > 30 µM (inactive)
2 | COc1cccc(NC(=O)c2cnc[nH]2)c1 | > 30 µM (inactive)
3 | Clc1ccc(OCc2nnc(SCc3nnc(-c4ccccc4)o3)o2)c(Cl)c1 | > 30 µM (inactive)
4 | O=c1[nH]c(CN2CCN(CCO)CC2)nc2ccccc12 | > 30 µM (inactive)
5 | COc1ccc(NC(=O)c2nnn(Cc3ccc(SC)cc3)c2N)c(OC)c1 | > 30 µM (inactive)
6 | COC(=O)c1c(C(C)=O)cnc2ccc(Br)cc12 | > 30 µM (inactive)
7 | Fc1ccc(/C=N/Nc2cc(N3CCOCC3)ncn2)cc1 | > 30 µM (inactive)
8 | Cc1nc(Nc2ccc(S(N)(=O)=O)cc2)oc1C | > 30 µM (inactive)
9 | O=c1[nH]c(=O)n(Cc2ccc(F)cc2)c(O)c1C=NCCCn1ccnc1 | > 30 µM (inactive)
10 | COc1cc2sc(C)nc2c2ccccc12 | > 30 µM (inactive)
11 | Cc1ccc(OCc2nnnn2-c2ccccc2)cc1 | > 30 µM (inactive)
12 | C[C@H](CO)N1C[C@H](C)[C@@H](CN(C)S(=O)(=O)c2ccc(F)cc2)Oc2c(NC(=O)Nc3ccccc3)cccc2C1=O | > 30 µM (inactive)
13 | O=C(CSc1nnc(-c2ccc(O)cc2)o1)Nc1ccccc1 | 16.3 µM
14 | CCOc1ccc(C(=O)c2cnc3ccccc3c2N2CCN(CC)CC2)cc1 | > 30 µM (inactive)
15 | N#CC1=C(N)Oc2n[nH]c(-c3cccnc3)c2C1c1cc(F)ccc1F (stereo unspecified) | > 30 µM (inactive)
16 | COc1ccccc1NC(=O)CSc1nnc(-c2ccccc2)o1 | > 30 µM (inactive)
17 | COc1ccc(-c2nnc(-c3ccccc3O)o2)cc1 | > 30 µM (inactive)
18 | COc1cccc(Nc2nc(N)c([N+](=O)[O-])c(NCc3ccccc3)n2)c1 | 13.4 µM
19 | O=C1c2c(O)ccc(O)c2C(=O)c2c(NCCNCCO)ccc(NCCNCCO)c21 | 28.3 µM
20 | CC1=C(C(=O)OCc2ccccc2)C(c2cccc(F)c2)NC(=O)N1 (stereo unspecified) | > 30 µM (inactive)
21 | CCN=C(NC#N)SCc1c(F)cccc1Cl | > 30 µM (inactive)
22 | Oc1ccc(/C=N/NC(=S)N/N=C/c2ccc(O)cc2)cc1 | 23.5 µM
23 | CCOC(=O)c1c(-c2cccc([N+](=O)[O-])c2)csc1N | 6.81 µM
24 | CCCCn1c(O)c(C=NCCCn2ccnc2)c(=O)[nH]c1=O | 5.81 µM
25 | O=c1[nH]c(=O)n(C2CCCCC2)c(O)c1C=NCCCn1ccnc1 | 4.06 µM
26 | Cc1cnc(NC(=O)C2COc3ccccc3O2)s1 (stereo unspecified) | 19.2 µM

Row | Structure (SMILES) | AC50
27 | Cc1ccc(N=c2oc3cc(O)ccc3cc2C(N)=O)cc1 | 2.17 µM
28 | CC(=O)Nc1ccccc1C | > 30 µM (inactive)
29 | Clc1ccccc1/C=N/Nc1cc(N2CCOCC2)ncn1 | > 30 µM (inactive)
30 | Cc1ccc(N(Cc2ccc([N+](=O)[O-])cc2)C(=O)c2ccco2)cc1C | > 30 µM (inactive)
31 | CCc1ccc(C2CC(c3cccc(Cl)c3)n3nc(N)nc3N2)cc1 (stereo unspecified) | > 30 µM (inactive)
32 | CC(OC(=O)Cc1c[nH]c2ccccc12)C(=O)N(C)c1ccccc1 (stereo unspecified) | > 30 µM (inactive)
33 | Cc1nc2ncnn2c(C)c1Cc1ccccc1Cl | > 30 µM (inactive)
34 | Cn1cnnc1SCC(=O)Nc1ncc([N+](=O)[O-])s1 | > 30 µM (inactive)
35 | CC(C)NC(=O)c1sc2nc3c(c(-c4cccs4)c2c1N)CN(C)CC3 | > 30 µM (inactive)
36 | CNc1cc(N2CCCC2)ccc1[N+](=O)[O-] | > 30 µM (inactive)
37 | Cc1ccc(S(=O)(=O)N(CC(O)CN2CCCCC2)c2ccccc2)cc1 (stereo unspecified) | > 30 µM (inactive)
38 | Oc1[nH]c2ccc(Br)cc2c1N=Nc1nn[nH]n1 | 23.3 µM
39 | COc1ccc(OC)c(S(=O)(=O)N2CCN(C(=O)c3cc(C4CC4)nn3-c3ccccc3)CC2)c1 | > 30 µM (inactive)
40 | N#Cc1sc2nc(-c3cccs3)cc(-c3ccccc3)c2c1N | > 30 µM (inactive)
41 | COc1ccc2cc(C(=O)NCc3ccco3)c(=O)oc2c1 | > 30 µM (inactive)
42 | O=C(O)COc1ccccc1/C=N/NC(=O)CSc1nnc(SCc2ccccc2)s1 | > 30 µM (inactive)
43 | CC(C)NC(=O)/C(=C\c1cccc([N+](=O)[O-])c1)NC(=O)c1ccccc1 | > 30 µM (inactive)
44 | CSCCC1NC(=S)N(Cc2ccccc2)C1=O (stereo unspecified) | > 30 µM (inactive)
45 | CCn1c(SCC(=O)Nc2ccc(C)cc2)nnc1-c1ccc(O)cc1 | > 30 µM (inactive)
46 | COc1cc(-c2nnc(SCc3c(F)cccc3Cl)o2)cc(OC)c1OC | > 30 µM (inactive)
47 | O=C(O)c1ccc(N=c2oc3cc(O)ccc3cc2C(=O)NCc2ccccc2)cc1 | 5.83 µM
48 | COc1ccc(C(=O)NC(=O)CSc2nnc(-c3ccco3)n2-c2ccccc2)cc1 | > 30 µM (inactive)
49 | CN1/C(=C/C(=S)NC(=O)C2CCC2)C(C)(C)c2ccccc21 | > 30 µM (inactive)
50 | CO/N=C/c1ccc(N2CCCC2)c([N+](=O)[O-])c1 | > 30 µM (inactive)
51 | CC(=O)c1cc(-c2ccc(F)cc2)n(CCC(=O)NC(C)(C)C)c1C | > 30 µM (inactive)
52 | O=C(c1ccc2c3n(nc2c1)-c1ccc(Cl)cc1CO3)N1CCCCC1 | > 30 µM (inactive)

Row | Structure (SMILES) | AC50
53 | COc1ccc(C(=O)O/N=C(\N)c2ccccc2)cc1 | 25 µM
54 | Cc1cn(C2OC(CC(=O)Oc3ccccc3)C(O)C2O)c(=O)[nH]c1=O (stereo unspecified) | 19.1 µM
55 | O=C1NC(=O)/C(=C\c2ccc(OCc3cccc(C(=O)O)c3)c(Cl)c2)N1 | 4.85 µM
56 | Cc1csc(NC(=O)/C=C/c2ccc3c(c2)OCO3)n1 | > 30 µM (inactive)
57 | CCOc1ccccc1C1N(c2ccc(OC)cc2)C(=O)C2CCCN21 (stereo unspecified) | > 30 µM (inactive)
58 | COc1ccc(/C=N/NC(=O)c2nnn(-c3nonc3N)c2-c2cccs2)c(OC)c1 | 1.04 µM
59 | Cc1c(C(=O)OC2CCCCC2)[nH]c2c1C(=O)CC(C)(C)C2 | > 30 µM (inactive)
60 | CNC(=O)c1ccc(NC(=O)C2CCN(c3ncnc4sc(C)c(C)c34)CC2)cc1 | > 30 µM (inactive)
61 | Cc1cccc(Nc2nc(C)cc(C)n2)c1 | > 30 µM (inactive)
62 | COc1cc2c(C#N)c(N3CCCCC3)nc(N)c2c(N)n1 | 13.4 µM
63 | C#CCSc1nnc(-c2ccc(O)cc2)o1 | 25.5 µM
64 | CN(CCO)c1ncnc2c1sc1nc(N3CCOCC3)c3c(c12)CCC3 | > 30 µM (inactive)
65 | NS(=O)(=O)c1ccc(Nc2nc(-c3cccnc3)cs2)cc1 | > 30 µM (inactive)
66 | Cc1cc(N2CCN(c3ccccc3)CC2)n2nnnc2n1 | > 30 µM (inactive)
67 | COc1ccc(-c2cc(C(F)(F)F)nc(SCCC(=O)NCc3ccco3)n2)cc1 | > 30 µM (inactive)
68 | S=C(Nc1ccccc1)Nc1ccc2cn[nH]c2c1 | 24.9 µM
69 | COc1cc(/C=N/NC(=O)c2nnn(-c3nonc3N)c2-c2cccs2)ccc1O | 4.37 µM
70 | Cn1c(SCC(=O)N/N=C/C=C\c2ccco2)nc2ccccc21 | > 30 µM (inactive)
71 | CCCCCCN=C(CC)c1c(O)n(CCCC)c(=O)[nH]c1=O | > 30 µM (inactive)
72 | O=C(CN(Cc1ccco1)C(=O)CCC(=O)Nc1ccccn1)NCc1ccccc1 | > 30 µM (inactive)
73 | Clc1ccc(C2=Nn3c(nnc3-c3cccs3)SC2)cc1 | > 30 µM (inactive)
74 | COc1ccc(S(=O)(=O)Nc2ccc(S(=O)(=O)Nc3nc(C)cc(C)n3)cc2)cc1OC | > 30 µM (inactive)
75 | O=C1CCCC2=C1C(c1ccc(Br)cc1)c1c([nH]c(=S)[nH]c1=O)N2 (stereo unspecified) | > 30 µM (inactive)
76 | O=C(Nc1sc2c(c1C(=O)O)CCC2)c1cccs1 | > 30 µM (inactive)
